The test deals with MV-4-11 cells. In words: Gene expression microarray analysis (Affymetrix PrimeView) and GSEA. Type of test: cell-based, human. Also on record: RFU PODN (11730768_x_at) / Fold change /veh PODN (11730768_x_at) / RFU LINC00158 (11744669_a_at) / Fold change /veh LINC00158 (11744669_a_at) / RFU DUSP10 (11751237_a_at) / Fold change /veh DUSP10 (11751237_a_at) / RFU ID3 (11757404_x_at) / Fold change /veh ID3 (11757404_x_at) / RFU PLEKHG5 (11737974_s_at) / Fold change /veh PLEKHG5 (11737974_s_at) / RFU LRRC4B (11730491_at) / Fold change /veh LRRC4B (11730491_at) / RFU GIMAP4 (11747438_a_at) / Fold change /veh GIMAP4 (11747438_a_at) / RFU KRT8 (11758183_x_at) / Fold change /veh KRT8 (11758183_x_at) / RFU CNN1 (11734310_a_at) / Fold change /veh CNN1 (11734310_a_at) / RFU VPS37D (11726825_at) / Fold change /veh VPS37D (11726825_at) / RFU C10orf10 (11716522_x_at) / Fold change /veh C10orf10 (11716522_x_at) / RFU KIR2DL2 /// KIR2DL4 /// KIR2DL5A /// KIR2DL5B /// KIR2DS1 /// KIR2DS2 /// KIR2DS3 /// KIR2DS4 /// KIR3DL3 /// KIR3DL3 /// KIR3DS1 (11738374_at) / Fold change /veh KIR2DL2 /// KIR2DL4 /// KIR2DL5A /// KIR2DL5B /// KIR2DS1 /// KIR2DS2 /// KIR2DS3 /// KIR2DS4 /// KIR3DL3 /// KIR3DL3 /// KIR3DS1 (11738374_at) / RFU C1QL1 (11718748_at) / Fold change /veh C1QL1 (11718748_at) / RFU TMPRSS4 (11747572_a_at) / Fold change /veh TMPRSS4 (11747572_a_at) / RFU HAMP (11756126_x_at) / Fold change /veh HAMP (11756126_x_at) / RFU RNFT2 (11725882_a_at) / Fold change /veh RNFT2 (11725882_a_at) / RFU NR4A2 (11747474_a_at) / Fold change /veh NR4A2 (11747474_a_at) / RFU ABCC12 (11746883_a_at) / Fold change /veh ABCC12 (11746883_a_at) / RFU TMEM136 (11760407_x_at) / Fold change /veh TMEM136 (11760407_x_at) / RFU CLDN22 /// WWC2 (11732394_at) / Fold change /veh CLDN22 /// WWC2 (11732394_at) / RFU HLA-DPB1 (11760878_x_at) / Fold change /veh HLA-DPB1 (11760878_x_at) / RFU SPINT1 (11716480_a_at) / Fold change /veh SPINT1 (11716480_a_at) / RFU GAP43 (11754022_s_at) / Fold change /veh GAP43 (11754022_s_at) / RFU A4GNT (11735810_at) / Fold change /veh A4GNT (11735810_at) / RFU PRB3 (11715151_x_at) / Fold change /veh PRB3 (11715151_x_at) / RFU TUBB4B (11761932_at) / Fold change /veh TUBB4B (11761932_at) / RFU CAPN14 (11732068_a_at) / Fold change /veh CAPN14 (11732068_a_at) / RFU TMCC2 (11721928_a_at) / Fold change /veh TMCC2 (11721928_a_at) / RFU IRGQ (11745062_a_at) / Fold change /veh IRGQ (11745062_a_at) / RFU FAM174B (11720279_a_at) / Fold change /veh FAM174B (11720279_a_at) / RFU TMPRSS4 (11748680_a_at) / Fold change /veh TMPRSS4 (11748680_a_at) / RFU FAM212B (11763350_a_at) / Fold change /veh FAM212B (11763350_a_at) / RFU PLEKHG5 (11743358_a_at) / Fold change /veh PLEKHG5 (11743358_a_at) / RFU ZSCAN30 (11745921_a_at) / Fold change /veh ZSCAN30 (11745921_a_at) / RFU CMKLR1 (11741424_a_at) / Fold change /veh CMKLR1 (11741424_a_at) / RFU LOC101060620 /// MAPK8IP1 (11723275_at) / Fold change /veh LOC101060620 /// MAPK8IP1 (11723275_at) / RFU SPTSSB (11747773_x_at) / Fold change /veh SPTSSB (11747773_x_at) / RFU PRSS12 (11739890_at) / Fold change /veh PRSS12 (11739890_at) / RFU BIN1 (11741810_x_at) / Fold change /veh BIN1 (11741810_x_at) / RFU WNT11 (11732464_a_at) / Fold change /veh WNT11 (11732464_a_at) / RFU C10orf10 (11716521_a_at) / Fold change /veh C10orf10 (11716521_a_at) / RFU C5orf56 (11738089_at) / Fold change /veh C5orf56 (11738089_at) / RFU CYB561 (11721691_x_at) / Fold change /veh CYB561 (11721691_x_at) / RFU ANKRD19P (11752326_a_at) / Fold change /veh ANKRD19P (11752326_a_at) / RFU OR2T12 /// OR2T33 /// OR2T8 (11738714_s_at) / Fold change /veh OR2T12 /// OR2T33 /// OR2T8 (11738714_s_at) / RFU VCAN (11748164_a_at) / Fold change /veh VCAN (11748164_a_at) / RFU JSRP1 (11732532_at) / Fold change /veh JSRP1 (11732532_at) / RFU KRTAP10-11 (11738290_x_at) / Fold change /veh KRTAP10-11 (11738290_x_at) / RFU MYO3A (11730013_a_at) / Fold change /veh MYO3A (11730013_a_at) / RFU EBF3 (11725865_a_at) / Fold change /veh EBF3 (11725865_a_at) / RFU CAMK2N1 (11719241_x_at) / Fold change /veh CAMK2N1 (11719241_x_at) / RFU C5orf56 (11738088_a_at) / Fold change /veh C5orf56 (11738088_a_at) / RFU OLFML3 (11715873_a_at) / Fold change /veh OLFML3 (11715873_a_at) / RFU LOC100653217 /// NTM (11731650_a_at) / Fold change /veh LOC100653217 /// NTM (11731650_a_at) / RFU MAPK11 (11762145_a_at) / Fold change /veh MAPK11 (11762145_a_at) / RFU FIZ1 (11724087_x_at) / Fold change /veh FIZ1 (11724087_x_at) / RFU OASL (11726364_x_at) / Fold change /veh OASL (11726364_x_at) / RFU SOX15 (11748057_x_at) / Fold change /veh SOX15 (11748057_x_at) / RFU CD79A (11719716_a_at) / Fold change /veh CD79A (11719716_a_at) / RFU HIST1H1D (11736915_at) / Fold change /veh HIST1H1D (11736915_at) / RFU CASKIN2 (11723855_a_at) / Fold change /veh CASKIN2 (11723855_a_at) / RFU LOC730098 (11760151_x_at) / Fold change /veh LOC730098 (11760151_x_at) / RFU OR4N2 (11742367_at) / Fold change /veh OR4N2 (11742367_at) / RFU PRRT2 (11749266_a_at) / Fold change /veh PRRT2 (11749266_a_at) / RFU SNX32 (11753110_a_at) / Fold change /veh SNX32 (11753110_a_at) / RFU CDHR5 (11726645_a_at) / Fold change /veh CDHR5 (11726645_a_at) / RFU RCAN1 (11760418_a_at) / Fold change /veh RCAN1 (11760418_a_at) / RFU FAM167A (11723789_a_at) / Fold change /veh FAM167A (11723789_a_at) / RFU FAM26E (11764081_at) / Fold change /veh FAM26E (11764081_at) / RFU ISYNA1 (11749810_s_at) / Fold change /veh ISYNA1 (11749810_s_at) / RFU ACY1 (11761880_at) / Fold change /veh ACY1 (11761880_at) / RFU 11764098_at / Fold change /veh 11764098_at / RFU SAMD14 (11745864_x_at) / Fold change /veh SAMD14 (11745864_x_at) / RFU NPB (11741838_a_at) / Fold change /veh NPB (11741838_a_at) / RFU TMPRSS6 (11731388_a_at) / Fold change /veh TMPRSS6 (11731388_a_at) / RFU KRTAP10-2 (11738614_at) / Fold change /veh KRTAP10-2 (11738614_at) / RFU ARHGAP8 /// PRR5-ARHGAP8 (11727945_x_at) / Fold change /veh ARHGAP8 /// PRR5-ARHGAP8 (11727945_x_at) / RFU KRTAP5-7 /// NADSYN1 (11734609_at) / Fold change /veh KRTAP5-7 /// NADSYN1 (11734609_at) / RFU RASL12 (11751679_a_at) / Fold change /veh RASL12 (11751679_a_at) / RFU CDKN2B (11736163_a_at) / Fold change /veh CDKN2B (11736163_a_at) / RFU PRF1 (11729649_at) / Fold change /veh PRF1 (11729649_at) / RFU, ZNF638 /// ZNF638-IT1 / Fold change vs veh, ZNF638 /// ZNF638-IT1 / RFU, PANK3 / Fold change vs veh, PANK3 / RFU, SH3YL1 / Fold change vs veh, SH3YL1 / RFU, ZEB2 / Fold change vs veh, ZEB2 / RFU, NRIP1 / Fold change vs veh, NRIP1 / RFU, PTTG1IP / Fold change vs veh, PTTG1IP / RFU, CAPN2 / Fold change vs veh, CAPN2 / RFU, MED14 / Fold change vs veh, MED14 / RFU, SNORA58 / Fold change vs veh, SNORA58 / RFU, C1orf63 / Fold change vs veh, C1orf63 / RFU, LRRFIP1 / Fold change vs veh, LRRFIP1 / RFU, NDUFAF7 / Fold change vs veh, NDUFAF7 / RFU, SLC12A2 / Fold change vs veh, SLC12A2 / RFU, IBTK / Fold change vs veh, IBTK / RFU, ESF1 / Fold change vs veh, ESF1 / Fold change vs veh, TMEM50B / RFU, TAOK1 / Fold change vs veh, TAOK1 / RFU, ACBD3 / Fold change vs veh, ACBD3 / RFU, TMA16 / Fold change vs veh, TMA16 / RFU, RWDD3 / Fold change vs veh, RWDD3 / RFU, BCAT1 / Fold change vs veh, BCAT1 / RFU, EDEM3 / Fold change vs veh, EDEM3 / RFU, TMEM33 / Fold change vs veh, TMEM33 / RFU, WDR75 / Fold change vs veh, WDR75 / RFU, AHCTF1 / Fold change vs veh, AHCTF1 / RFU, TFRC / Fold change vs veh, TFRC / RFU, ZDHHC17 / Fold change vs veh, ZDHHC17 / RFU, NOM1 / Fold change vs veh, NOM1 / RFU, ARL8B / Fold change vs veh, ARL8B / RFU, ZBTB11 / Fold change vs veh, ZBTB11 / RFU, TAMM41 / Fold change vs veh, TAMM41 / RFU, KIAA1704 /// LOC100996395 / Fold change vs veh, KIAA1704 /// LOC100996395 / RFU, ING1 / Fold change vs veh, ING1 / RFU, TRMT61B / Fold change vs veh, TRMT61B / RFU, FUBP3 / Fold change vs veh, FUBP3 / RFU, TP53 / Fold change vs veh, TP53 / RFU, TNKS2 / Fold change vs veh, TNKS2 / RFU, ZFP14 / Fold change vs veh, ZFP14 / RFU, ACTR2 / Fold change vs veh, ACTR2 / RFU, PPP3R1 / Fold change vs veh, PPP3R1 / RFU, PIK3R1 / Fold change vs veh, PIK3R1 / RFU, HNRNPA1 / Fold change vs veh, HNRNPA1 / RFU, RNF170 / Fold change vs veh, RNF170 / RFU, ZNF28 / Fold change vs veh, ZNF28 / RFU, RNGTT / Fold change vs veh, RNGTT / RFU, OGT / Fold change vs veh, OGT / RFU, BRD1 / Fold change vs veh, BRD1 / RFU, MARS / Fold change vs veh, MARS / RFU, ZNF655 / Fold change vs veh, ZNF655 / RFU, FAHD1 / Fold change vs veh, FAHD1 / RFU, BDP1 / Fold change vs veh, BDP1 / RFU, LRRCC1 / Fold change vs veh, LRRCC1 / RFU, ARID1A / Fold change vs veh, ARID1A / RFU, ZNF146 / Fold change vs veh, ZNF146 / RFU, ZNF330 / Fold change vs veh, ZNF330 / RFU, GPN3 / Fold change vs veh, GPN3 / RFU, C9orf123 / Fold change vs veh, C9orf123 / RFU, N4BP2L2 / Fold change vs veh, N4BP2L2 / RFU, ARFIP1 / Fold change vs veh, ARFIP1 / RFU, FAM179B / Fold change vs veh, FAM179B / RFU, BCL10 / Fold change vs veh, BCL10 / RFU, UHRF1BP1L / Fold change vs veh, UHRF1BP1L / RFU, BET1 / Fold change vs veh, BET1 / RFU, CNOT2 / Fold change vs veh, CNOT2 / RFU, ZNF268 / Fold change vs veh, ZNF268 / Fold change vs veh, ZNF507 / RFU, DGCR2 / Fold change vs veh, DGCR2 / RFU, WDSUB1 / Fold change vs veh, WDSUB1 / Fold change vs veh, HSP90B1 /// MIR3652 / RFU, ADSS / Fold change vs veh, ADSS / RFU, GK / Fold change vs veh, GK / RFU, ZNF148 / Fold change vs veh, ZNF148 / RFU, TAF9 / Fold change vs veh, TAF9 / RFU, SLC1A5 / Fold change vs veh, SLC1A5 / RFU, SLMO2 / Fold change vs veh, SLMO2 / RFU, ABCC4 / Fold change vs veh, ABCC4 / RFU, LOC101060439 /// RAP1B / Fold change vs veh, LOC101060439 /// RAP1B / RFU, RFX7 / Fold change vs veh, RFX7 / RFU, GTPBP10 / Fold change vs veh, GTPBP10 / RFU, CNEP1R1 / Fold change vs veh, CNEP1R1 / RFU, BIVM-ERCC5 /// ERCC5 / Fold change vs veh, BIVM-ERCC5 /// ERCC5 / RFU, ILF3 / Fold change vs veh, ILF3 / RFU 11762660_at / Fold change /veh 11762660_at / RFU VCAN (11757783_s_at) / Fold change /veh VCAN (11757783_s_at) / RFU DDX43 (11728927_at) / Fold change /veh DDX43 (11728927_at) / RFU KRT8 (11758188_x_at) / Fold change /veh KRT8 (11758188_x_at) / RFU NKD1 (11759106_at) / Fold change /veh NKD1 (11759106_at) / RFU SRD5A1 (11742802_a_at) / Fold change /veh SRD5A1 (11742802_a_at) / RFU TPSAB1 /// TPSB2 (11721975_s_at) / Fold change /veh TPSAB1 /// TPSB2 (11721975_s_at) / RFU GSTM3 (11746129_a_at) / Fold change /veh GSTM3 (11746129_a_at) / RFU IL23R (11737362_x_at) / Fold change /veh IL23R (11737362_x_at) / RFU TMEM51 (11727254_a_at) / Fold change /veh TMEM51 (11727254_a_at) / RFU PIWIL2 (11732686_x_at) / Fold change /veh PIWIL2 (11732686_x_at) / RFU ORM1 (11744905_x_at) / Fold change /veh ORM1 (11744905_x_at) / RFU CCDC152 (11743942_at) / Fold change /veh CCDC152 (11743942_at) / RFU ECM1 (11717891_a_at) / Fold change /veh ECM1 (11717891_a_at) / RFU IL23R (11748794_a_at) / Fold change /veh IL23R (11748794_a_at) / RFU TNFAIP8L3 (11732012_x_at) / Fold change /veh TNFAIP8L3 (11732012_x_at) / RFU MBOAT4 (11741988_at) / Fold change /veh MBOAT4 (11741988_at) / RFU 11764193_at / Fold change /veh 11764193_at / RFU TMEM53 (11763286_at) / Fold change /veh TMEM53 (11763286_at) / RFU MAGEB2 (11727129_at) / Fold change /veh MAGEB2 (11727129_at) / RFU TMEM200A (11744735_a_at) / Fold change /veh TMEM200A (11744735_a_at) / RFU CCDC152 (11751479_a_at) / Fold change /veh CCDC152 (11751479_a_at) / RFU FAM211A (11726209_a_at) / Fold change /veh FAM211A (11726209_a_at) / RFU RGS16 (11746705_a_at) / Fold change /veh RGS16 (11746705_a_at) / RFU VCAN (11755009_s_at) / Fold change /veh VCAN (11755009_s_at) / RFU RHOB (11743442_s_at) / Fold change /veh RHOB (11743442_s_at) / RFU RGS16 (11720943_a_at) / Fold change /veh RGS16 (11720943_a_at) / RFU RGS16 (11720944_at) / Fold change /veh RGS16 (11720944_at) / RFU, VPS4B / Fold change vs veh, VPS4B / RFU, CREB1 / Fold change vs veh, CREB1 / RFU, DNAJC13 / Fold change vs veh, DNAJC13 / RFU, GNAQ / Fold change vs veh, GNAQ / RFU, CDK5R1 / Fold change vs veh, CDK5R1 / RFU, ZRANB3 / Fold change vs veh, ZRANB3 / RFU, CUL4A / Fold change vs veh, CUL4A / RFU, CCNY / Fold change vs veh, CCNY / RFU, UFL1 / Fold change vs veh, UFL1 / RFU, COG3 / Fold change vs veh, COG3 / RFU, DIAPH2 / Fold change vs veh, DIAPH2 / RFU, SKA2 / Fold change vs veh, SKA2 / RFU, AFF3 / Fold change vs veh, AFF3 / RFU, LMF1 / Fold change vs veh, LMF1 / RFU, IPO11 / Fold change vs veh, IPO11 / RFU, DFFB / Fold change vs veh, DFFB / RFU, FOXP1 / Fold change vs veh, FOXP1 / RFU, CARD8 / Fold change vs veh, CARD8 / RFU, STRN3 / Fold change vs veh, STRN3 / RFU, ADK / Fold change vs veh, ADK / RFU, RASSF2 / Fold change vs veh, RASSF2 / RFU, WIPF1 / Fold change vs veh, WIPF1 / RFU, LARP1B / Fold change vs veh, LARP1B / RFU, RASA1 / Fold change vs veh, RASA1 / RFU, RB1 / Fold change vs veh, RB1 / RFU, PPFIA1 / Fold change vs veh, PPFIA1 / RFU, MAT2A / Fold change vs veh, MAT2A / RFU, CCT5 / Fold change vs veh, CCT5 / RFU, WDR92 / Fold change vs veh, WDR92 / RFU, CUX1 / Fold change vs veh, CUX1 / RFU, TTC7A / Fold change vs veh, TTC7A / RFU, TMEM135 / Fold change vs veh, TMEM135 / RFU, DEPTOR / Fold change vs veh, DEPTOR / RFU, CPM / Fold change vs veh, CPM / RFU, DNAJB6 / Fold change vs veh, DNAJB6 / RFU, CACNA2D3 / Fold change vs veh, CACNA2D3 / RFU, DTX4 / Fold change vs veh, DTX4 / RFU, TFCP2 / Fold change vs veh, TFCP2 / RFU, GMCL1 /// GMCL1P1 / Fold change vs veh, GMCL1 /// GMCL1P1 / RFU, AEBP2 / Fold change vs veh, AEBP2 / RFU, SNHG1 /// SNORD22 /// SNORD25 /// SNORD26 /// SNORD27 /// SNORD28 /// SNORD29 /// SNORD31 / Fold change vs veh, SNHG1 /// SNORD22 /// SNORD25 /// SNORD26 /// SNORD27 /// SNORD28 /// SNORD29 /// SNORD31 / Fold change (Aza/veh), C12orf56 (ProbeSet 11735607_a_at) / Fold change (ACY-1035/veh), C12orf56 (ProbeSet 11735607_a_at) / Fold change (Aza/veh), FGFR1OP (ProbeSet 11751329_s_at) / Fold change (ACY-1035/veh), FGFR1OP (ProbeSet 11751329_s_at) / Fold change (Aza/veh), VPS36 (ProbeSet 11739960_a_at) / Fold change (ACY-1035/veh), VPS36 (ProbeSet 11739960_a_at) / RFU SYPL1 (11715823_x_at) / Fold change /veh SYPL1 (11715823_x_at) / RFU IGFBP7 (11715501_s_at) / Fold change /veh IGFBP7 (11715501_s_at) / RFU REEP3 (11722064_at) / Fold change /veh REEP3 (11722064_at) / RFU IGLL1 (11728026_x_at) / Fold change /veh IGLL1 (11728026_x_at): dose or concentration left out as unconfirmed. The conditions noted are these: MV-4-11 cells, 48 hours.

In the case of `Nc1ncn([C@@H]2O[C@H](CO)[C@@H](O)[C@H]2O)c(=O)n1` [azacitidine], the “Fold change /veh FIZ1 (11724087_x_at)” value turned out to be 1.09.

For the origin of these results see article PMC5218480 (PLoS ONE, 2017).
